{"source": "paper PMC10126473", "about": "(Frontiers in Pharmacology, 2023)", "key": {"[1]": {"test": "PBPK model (GastroPlus): simulation and model parameters incl. permeability surface product and scaled metabolic kinetics, hamster", "conditions": "for Liver Vmax / Plasma k: in vivo (scaled)", "method": "CL in vitro,app expressed as mL/min/mg microsomes were scaled to the predicted CLintrinsic using scaling factor (SF), microsome level and liver weight as indicated below: CLintrinsic=CLin vitro,app×SF×liver weight×microsome level per gram liver\nAll modeling and simulation were carried out using GastroPlus version 9.5 (Simulations Plus Inc., CA). Physiochemical parameters including blood-to-plasma ratio (Rbp), pKa, and logP were predicted by ADMET predictor (Simulations Plus Inc., CA). Physiologies of all species, including organ weights, volumes, tissue compositions, and blood perfusion rates, were generated by the program’s internal module. Tissue intracellular unbound fractions were generated by GastroPlus based on predicted or experimentally determined physiochemical and chemical-biological parameters including pKa, logP, plasma unbound fractions (Fup), Rbp, solubility, and PAMPA permeability. The PBPK model structure is illustrated in Figure 2 and its parameters are summarized in Supplementary Tables S3–6. The default absorption and dissolution model was applied and effective intestine permeability was predicted by a built-in correlation from the experimental PAMPA permeability result. Parameters including partition coefficients in tissue (Kp), CLintrinsic, and permeability surface area product (PStc) were estimated by fitting the model to experimental data using the optimization module in GastroPlus with objective function weights at 1/(y + ŷ)^2, where y is the observed value and ŷ is the predicted value.\nExperimental measurements of hamster plasma pharmacokinetics and lung concentrations were used in the model validation."}, "[2]": {"test": "Incubation in liver cytosolic fractions", "assay_type": "in vitro ADME", "conditions": "mouse, hamster, human, read-out: in vitro metabolic half-life (t1/2)", "method": "The in vitro metabolic stability of PDN was determined in the plasma and liver fractions of three species. […] Based on the formation of Nc in plasma, about 51%, 16%, and 10% of depleted PDN were converted to Nc in mouse, hamster, and human plasma, respectively. PDN was also metabolized in the liver microsomes. However, due to the fast metabolism of formed Nc in liver microsomes (sequential metabolism), only a trace amount of Nc was detected after incubation of PDN. Therefore, the metabolism kinetics of PDN was investigated to obtain the Vmax, in vitro, app and Km values of PDN depletion (Table 3)."}, "[3]": {"test": "Metabolic stability and biotransformation in liver microsomes", "conditions": "for Liver Vmax: in vitro", "experimental": "The incubation was carried out at 37°C for 15, 30, and 60 min. The reaction in plasma or liver microsomes was quenched by adding 200 μL of cold acetonitrile (containing 100 ng/mL tolbutamide as internal standard).\nThe mc was the microsome concentration used in the incubation (0.5 mg/mL). The substrate disappearance half-life (t1/2) was estimated by regression analysis of the semi-logarithmic (ln Conc vs. time) plots. […] The Vmax, in vitro,app, PDN-total and Km for PDN depletion in liver microsomes were estimated by the Michaelis-Menten model using GraphPad Prism version 8."}, "[4]": {"test": "Metabolic stability in plasma", "conditions": "for Plasma k: hamster, in vitro"}}}
{"compound": "O=C(Nc1ccc([N+](=O)[O-])cc1Cl)c1cc(Cl)ccc1OC(=O)N1CCNCC1", "note": "[PDN]", "values": [{"measurement": "Liver Vmax", "setting": "[1]; conversion to Nc", "value": 0.0130, "unit": "mg/s/mg microsomes"}, {"measurement": "Plasma k", "setting": "[1]; conversion to Nc", "value": 0.0052, "unit": "s⁻¹"}, {"measurement": "Gut Vmax", "setting": "[1]; conversion to Nc, in vivo, predicted from in vitro liver parameters", "value": 0.0004, "unit": "mg/s/mg microsomes"}, {"measurement": "Liver Vmax", "setting": "[1]; conversion to Others", "value": 0.1649, "unit": "mg/s/mg microsomes"}, {"measurement": "Plasma k", "setting": "[1]; conversion to Others", "value": 0.0189, "unit": "s⁻¹"}, {"measurement": "half-life", "setting": "[2]", "value": "> 2", "unit": "h"}, {"measurement": "Liver Vmax", "setting": "[3]; conversion to Nc, human", "value": 0.0002, "unit": "mg/s/mg microsomes"}, {"measurement": "Gut Vmax", "setting": "[3]; conversion to Nc, human, in vitro (in vitro liver parameters)", "value": 0.00024, "unit": "mg/s/mg microsomes"}, {"measurement": "Liver Vmax", "setting": "[3]; conversion to Others, human", "value": 0.0106, "unit": "mg/s/mg microsomes"}, {"measurement": "Vmax in vitro,app, PDN-total", "setting": "[3]; human liver microsomes", "value": "0.365 ± 0.187", "unit": "nmol/min/mg"}, {"measurement": "Km", "setting": "[3]; human, pH 7.4", "value": "33.8 ± 29.1", "unit": "µM"}, {"measurement": "Plasma k", "setting": "[4]; conversion to Nc", "value": 0.0045, "unit": "s⁻¹"}, {"measurement": "Plasma k", "setting": "[4]; conversion to Others", "value": 0.0146, "unit": "s⁻¹"}, {"measurement": "kin vitro,app, PDN-total (total depletion of PDN)", "setting": "[4]; hamster plasma, 37°C", "value": "0.0191 ± 0.0044", "unit": "min⁻¹"}]}
